Measurements: patent US12532887B2, “Method for controlling pests of potato plants” (BASF SE, priority 2018, dated 2026)
Where two headings read alike, the source gives them in different places.

Tests used:
[1] = system: Colorado Potato Beetle (CPB, Leptinotarsa decemlineata); test: Colorado Potato Beetle dipping bioassay (foliar method) with potato plants; format: in vivo; conditions: for Activity against CPB by potato plant dipping assay / Feeding damage protection of potato plants, Feeding Protection (%) / Feeding damage protection of potato plants (%), Control corrected: 100 ppm; for Feeding damage protection of potato plants, Feeding Protection (%) / Feeding damage protection of potato plants (%), Control corrected / mortality at 100 ppm: leaf dipping, 2nd instar CPB, 5 days after infest; for mortality at 100 ppm: Leptinotarsa decemlineata, foliar, 120 h
Source text: 2. Method: Colorado Potato Beetle (CPB, Leptinotarsa decemlineata) Dipping Bioassay (Foliar Method) with Potato Plants Serial dilutions of TGAI are made in 50:50 (acetone: H2O) 0.01% kinetic solvent solution. Potato plant true leaves are snipped off the plant, treated by dipping method in a bowl with acetone-resistant plastic liner and inserted into a glass flask filled with water of the stem part to prevent dehydration of the leaves. Leaves are air-dried in hood, and transferred to petri dishes preset with a filter paper soaked with 2.5 ml water. The leaves are infested with five 2nd instar CPB per dish. 6 replicates/treatment and one rate (100 ppm)/test analog. Petri dishes are held for 5 days after infest at a […], 50% RH and 14/10 light/dark cycle in walk-in chamber. Both plant feeding damage and mortality of CPB were evaluated.

[2] = system: Colorado Potato beetle, Leptinotarsa decimlineata; test: Field trial, foliar application on potato, feeding damage assessment; format: in vivo
Source text: 1. Potato-Colorado Potato Beetle, Leptinotarsa decimlineata:
Foliar application: Field trials were set up. The plots were laid out in 5-meter rows with 4 replications. Applications of Compound I-R-1 was done. Feeding damage assessments were taken at 6, 15 and 20 days after application for the entire plot.

[3] = control corrected, read-out: Mortality of CPB (%), Control corrected
[4] = read-out: Mortality of CPB, Mortality (%)

SMILES | Activity against CPB by potato plant dipping assay [1] | Feeding damage protection of potato plants, Feeding Protection (%) [1] | Feeding damage protection of potato plants (%), Control corrected ([1]; control corrected) | mortality at 100 ppm [1, 3] | mortality at 100 ppm [1, 4] | Efficacy against L. decimlineata as foliar application in terms of reduction in feeding damage ([2]; foliar application (Table 2)) | Feeding damage (%) A06 ([2]; foliar treatment, 60 g ai/ha, 6 days after application, entire plot) | Feeding damage (%) A15 ([2]; foliar treatment, 60 g ai/ha, 15 days after application, entire plot) | Feeding damage (%) A20 ([2]; foliar treatment, 60 g ai/ha, 20 days after application, entire plot)
C[n+]1c([O-])c(-c2ccccc2)c(=O)n2c1SCC2c1cnc(Cl)s1 (racemic) [Compound (I)] | active | 89.17% | 88.60% | 56.7% | 56.7% |  |  |  | 
C[n+]1c([O-])c(-c2ccccc2)c(=O)n2c1CCC2c1cnc(Cl)s1 (stereo not drawn) [Compound C-6, reference compound] | inactive | 11.67% | 7.00% | 0% | 0% |  |  |  | 
C[n+]1c([O-])c(-c2ccccc2)c(=O)n2c1OCC2c1cnc(Cl)s1 (stereo not drawn) [Compound C-19, reference compound] | inactive | 5.00% | 0.00% | 3.33% | 3.33% |  |  |  | 
C[n+]1c([O-])c(-c2ccccc2)c(=O)n2c1SC[C@@H]2c1cnc(Cl)s1 [Compound (I-R-1)] | active | 90.83% | 90.40% | 80% | 80% | good efficacy | 6.5% | 5.0% | 8.0%
